# Data from patent US10407381B2 (THE BOARD OF TRUSTEES OF THE UNIVERSITY OF ILLINOIS, priority 2015, dated 2019).
# pEC50: −log10 of the molar value. Where two headings read alike, the source gives them in different places.
# What was measured:
# [1] = target: T1, rat 5-HT2C-INI (Rattus norvegicus, UniProt P08909); assay: Calcium flux (FLIPR) assay, rat 5-HT2C-INI receptors expressed on PO1C cells; type: cell-based; details: data acquired with rat 5-HT2C-INI receptors expressed on PO1C cells; for EC50: NA = no activity at 10 μM, read-out: EC50, nM 5-HT2C (footnote a)
# T1 construct: expressed in transfected cells; host or cells: rat PO1C cell line
# T1 sequence (P08909 33-460): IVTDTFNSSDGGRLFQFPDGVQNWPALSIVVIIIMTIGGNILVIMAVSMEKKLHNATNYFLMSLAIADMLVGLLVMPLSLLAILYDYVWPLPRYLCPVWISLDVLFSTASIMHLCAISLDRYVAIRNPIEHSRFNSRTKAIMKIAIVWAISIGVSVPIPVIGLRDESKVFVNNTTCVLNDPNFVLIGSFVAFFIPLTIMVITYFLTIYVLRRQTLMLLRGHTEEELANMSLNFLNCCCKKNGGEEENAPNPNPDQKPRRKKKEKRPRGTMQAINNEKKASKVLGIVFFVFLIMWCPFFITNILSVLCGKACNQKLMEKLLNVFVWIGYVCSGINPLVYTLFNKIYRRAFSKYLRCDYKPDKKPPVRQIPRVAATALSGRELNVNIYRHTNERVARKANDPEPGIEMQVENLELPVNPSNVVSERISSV
# Description: Rat 5-HT2C-INI Receptors Expressed on PO1C Cells
# Rat PO1C cell line stably expressing the rat 5-HT2C-INI was plated onto Poly-L-Lys-coated 384-well black clear bottom cell culture plates in DMEM 1% dialyzed FBS (12 000 cells/well). Preceding the experiment, culture medium was removed and 20 μl of assay buffer (20 mM Hepes, pH 7.40, Hanks' balanced salt solution, 2.5 mM probenecid, 1×FLIPR calcium dye) was added and cells incubated at 37° C. for 1 h. Serial dilution of each tested drugs were prepared at 3× final concentration and transfer to a 384-well plates. Cell and drug plates were placed in a FLIPR^TETRA fluorescence imaging plate reader ([…]) and programmed to read baseline for 10 sec (1 read/s) and then add 10 μl of drug/well and to read additional 120 sec. […] Data were plotted and normalized compared to 5-HT and regressed using sigmoidal dose-response function. Data of two independent experiments (n=2) conducted in quadruplicate are presented. Analyses were performed using the software GraphPad Prism 6.0.
# [2] = target: T2, 5-HT2C receptor (Homo sapiens, UniProt P28335); details: cited from earlier work; for selectivity for 5-HT2C relative to 5-HT2B: 5-HT2C versus 5-HT2B
# T2 sequence (P28335 33-458): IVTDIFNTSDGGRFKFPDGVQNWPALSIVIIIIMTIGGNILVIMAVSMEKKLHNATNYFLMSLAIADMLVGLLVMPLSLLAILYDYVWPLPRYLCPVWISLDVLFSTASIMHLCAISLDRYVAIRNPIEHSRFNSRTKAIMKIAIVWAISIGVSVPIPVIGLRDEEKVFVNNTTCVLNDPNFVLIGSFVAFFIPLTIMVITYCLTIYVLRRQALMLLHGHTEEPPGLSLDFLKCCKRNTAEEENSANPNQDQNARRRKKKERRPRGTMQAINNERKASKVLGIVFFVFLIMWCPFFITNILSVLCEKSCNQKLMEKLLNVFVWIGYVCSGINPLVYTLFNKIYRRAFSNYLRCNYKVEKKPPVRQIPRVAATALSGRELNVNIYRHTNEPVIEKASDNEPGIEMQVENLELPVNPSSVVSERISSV
# [3] = target: T3, 5-HT2B (Homo sapiens, UniProt P41595); details: background, reported values; cited from earlier work
# Target sequence in this assay (P41595 whole entry, species assumed): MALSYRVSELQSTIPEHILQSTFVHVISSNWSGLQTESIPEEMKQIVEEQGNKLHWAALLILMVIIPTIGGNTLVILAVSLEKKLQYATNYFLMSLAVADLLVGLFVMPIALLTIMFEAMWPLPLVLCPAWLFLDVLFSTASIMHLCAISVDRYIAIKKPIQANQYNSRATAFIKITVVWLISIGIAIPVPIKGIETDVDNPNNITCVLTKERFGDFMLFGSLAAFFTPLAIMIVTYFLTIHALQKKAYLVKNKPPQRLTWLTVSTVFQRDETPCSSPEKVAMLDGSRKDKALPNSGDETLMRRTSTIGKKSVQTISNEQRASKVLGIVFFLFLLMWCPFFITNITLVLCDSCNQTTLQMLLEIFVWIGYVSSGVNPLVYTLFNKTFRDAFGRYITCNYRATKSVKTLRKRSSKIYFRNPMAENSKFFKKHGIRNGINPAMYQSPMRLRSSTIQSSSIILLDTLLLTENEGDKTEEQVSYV
# [4] = target: T4, human 5-HT2C-INI (Homo sapiens, UniProt P28335); assay: Calcium flux (FLIPR) assay, human 5-HT2C-INI stably expressed in HEK-293 (Flp-In-293) cells; details: for EC50: EC50, nM 5-HT2C, NA = no activity at 10 μM; for EC50 / Emax, % 5-HT 5-HT2C: human 5-HT2C-INI in HEK-293 cells, FLIPR; for Emax, % 5-HT 5-HT2C: normalized to 5-HT
# T4 sequence (P28335 33-458): T2 sequence (P28335 33-458)
# [5] = system: C57BL/6J mice; assay: Amphetamine-stimulated activity test (open field), schizophrenia-like animal model; details: for AMPH-stimulated hyperlocomotion relative to the Veh-AMPH group: 10 or 20 mg/kg i.p., 3 mg/kg amphetamine, distance travelled 16-120 min, p-values<0.035; for dose dependence of suppression of AMPH hyperactivity: 10 versus 20 mg/kg i.p.; for influence on spontaneous activity, compound alone: 20 mg/kg i.p., 20-Veh groups
# [6] = target: T3, 5-HT2B; assay: Calcium flux (FLIPR) assay, human 5-HT2B stably expressed in HEK-293 (Flp-In-293) cells; details: human 5-HT2B in HEK-293 cells; for EC50: EC50, nM 5-HT2B, NA = no activity at 10 μM; for Emax, % 5-HT 5-HT2B: normalized to 5-HT
# Target sequence in this assay (P41595 whole entry): as the sequence (P41595 whole entry, species assumed) above
# [7] = target: T5, 5-HT2A (Homo sapiens, UniProt P28223); assay: Calcium flux (FLIPR) assay, human 5-HT2A stably expressed in HEK-293 (Flp-In-293) cells; details: for EC50: EC50, nM 5-HT2A, NA = no activity at 10 μM; for EC50 / Emax, % 5-HT 5-HT2A: human 5-HT2A in HEK-293 cells, FLIPR; for Emax, % 5-HT 5-HT2A: normalized to 5-HT
# Target sequence in this assay (P28223 whole entry): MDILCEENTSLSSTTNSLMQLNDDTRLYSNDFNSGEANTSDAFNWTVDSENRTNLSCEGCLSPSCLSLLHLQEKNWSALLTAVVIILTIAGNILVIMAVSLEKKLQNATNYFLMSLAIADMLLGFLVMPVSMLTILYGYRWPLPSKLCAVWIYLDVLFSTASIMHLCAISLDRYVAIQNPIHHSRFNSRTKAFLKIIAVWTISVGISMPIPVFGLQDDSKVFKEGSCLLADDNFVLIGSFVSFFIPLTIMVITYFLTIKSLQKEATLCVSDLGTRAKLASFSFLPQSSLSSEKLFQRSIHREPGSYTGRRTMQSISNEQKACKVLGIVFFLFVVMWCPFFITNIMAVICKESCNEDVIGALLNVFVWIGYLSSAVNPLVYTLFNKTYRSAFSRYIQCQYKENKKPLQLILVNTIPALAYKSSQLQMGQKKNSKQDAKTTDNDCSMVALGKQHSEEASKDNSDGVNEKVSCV
# [8] = clinical trials, compared to the placebo group; cited from earlier work
# [9] = target: T5, 5-HT2A; details: background, cited from earlier work
# Target sequence in this assay (P28223 whole entry, species assumed): as the sequence (P28223 whole entry) above
# [10] = 10-60 mg/kg; cited from earlier work
# [11] = several animal models; cited from earlier work
smiles,measurement,setting,value
"NCC1CC1c1cc(Cl)ccc1Oc1ccccc1 (single isomer, unassigned; (+)) [(+)-Example 27, (+)-(2-(5-Chloro-2-phenoxyphenyl)cyclopropyl)methanamine]","Emax, % 5-HT 5-HT2C (footnote a)",[1],(79%) ^a % 5-HT
same,EC50,[1],1800 nM
"NCC1CC1c1cc(Cl)ccc1OCc1ccccc1 (single isomer, unassigned; (-)) [(−)-Example 28, (−)-(2-(2-(benzyloxy)-5-chlorophenyl)cyclopropyl)methanamine]","Emax, % 5-HT 5-HT2C (footnote a)",[1],(51%) ^a % 5-HT
same,EC50,[1],1540 nM
"NCC1CC1c1cc(Cl)ccc1Oc1ccccc1 (single isomer, unassigned; (-)) [(−)-Example 27, (−)-(2-(5-Chloro-2-phenoxyphenyl)cyclopropyl)methanamine]","Emax, % 5-HT 5-HT2C (footnote a)",[1],(42%) ^a % 5-HT
same,EC50,[1],3960 nM
"CC(C)Oc1cc(F)c(Cl)cc1C1CC1CN (single isomer, unassigned; (+)) [(+)-Example 3, (+)-(2-(5-Chloro-4-fluoro-2-isopropoxyphenyl)cyclopropyl)methanamine]","Emax, % 5-HT 5-HT2C (footnote a)",[1],(91%) ^a % 5-HT
same,EC50,[1],56 nM
"NCC1CC1c1cc(Cl)ccc1OCC(F)(F)F (single isomer, unassigned; (+)) [(+)-Example 22, (+)-(2-(5-Chloro-2-(2,2,2-trifluoroethoxy)phenyl)cyclopropyl)methanamine]","Emax, % 5-HT 5-HT2C (footnote a)",[1],(85%) ^a % 5-HT
same,EC50,[1],495 nM
"Clc1cccc(COc2cncc(N3CCNCC3)n2)c1 [CP-809,101]",selectivity for 5-HT2C relative to 5-HT2B,[2],about 600 fold
same,Emax at 5-HT2C,"[2]; background, reported values",93%
same,Emax at 5-HT2B,[3],57%
"NCC1CC1c1cc(Cl)ccc1OCCF (single isomer, unassigned; (+)) [(+)-Example 19, (+)-(2-(5-Chloro-2-(2-fluoroethoxy)phenyl)cyclopropyl)methanamine]",EC50,[4],32 nM
same,"Emax, % 5-HT 5-HT2C",[4],(86%) % 5-HT
same,AMPH-stimulated hyperlocomotion relative to the Veh-AMPH group,[5],significantly reduced
same,dose dependence of suppression of AMPH hyperactivity,[5],not differentiated by dose
same,EC50,[6],632 nM
same,"Emax, % 5-HT 5-HT2B",[6],(31%) % 5-HT
same,EC50,[7],1480 nM
same,"Emax, % 5-HT 5-HT2A",[7],(35%) % 5-HT
"NCC1CC1c1cc(F)ccc1OCCF (single isomer, unassigned; (+)) [(+)-Example 10, (+)-(2-(5-Fluoro-2-(2-fluoroethoxy)phenyl)cyclopropyl)methanamine]",EC50,[4],3.4 nM
same,"Emax, % 5-HT 5-HT2C",[4],(89%) % 5-HT
same,"influence on spontaneous activity, compound alone",[5],little influence
same,AMPH-stimulated hyperlocomotion relative to the Veh-AMPH group,[5],significantly reduced
same,dose dependence of suppression of AMPH hyperactivity,[5],not differentiated by dose
same,EC50,[7],359 nM
same,"Emax, % 5-HT 5-HT2A",[7],(76%) % 5-HT
"C[C@H]1CNCCc2ccc(Cl)cc21 [lorcaserin, reference compound]","Emax, % 5-HT 5-HT2C",[4],(99%) % 5-HT
same,Emax,[4]; read-out: 5-HT2C Emax Std. Error,99%
same,incidence of cardiac valve disorders,[8],higher incidence of cardiac valve disorders
same,Emax,[7]; read-out: 5-HT2A Emax Std. Error,68%
"C=C(F)COc1ccc(Cl)cc1C1CC1CN (single isomer, unassigned; (+)) [(+)-Example 25, (+)-(2-(5-Chloro-2-((2-fluoroallyl)oxy)phenyl)cyclopropyl)methanamine]",EC50,[4],133 nM
same,"Emax, % 5-HT 5-HT2C",[4],(81%) % 5-HT
same,"influence on spontaneous activity, compound alone",[5],little influence
same,AMPH-stimulated hyperlocomotion relative to the Veh-AMPH group,[5],significantly reduced
same,dose dependence of suppression of AMPH hyperactivity,[5],dose-dependently suppressed the hyperactivity
same,EC50,[6],1690 nM
same,"Emax, % 5-HT 5-HT2B",[6],(27%) % 5-HT
"C=CCOc1ccc(F)cc1C1CC1CN (single isomer, unassigned; (+)) [(+)-Example 8, (+)-(2-(2-(Allyloxy)-5-fluorophenyl)cyclopropyl)methanamine]",EC50,[4],4.2 nM
same,"Emax, % 5-HT 5-HT2C",[4],(87%) % 5-HT
same,"influence on spontaneous activity, compound alone",[5],little influence
same,AMPH-stimulated hyperlocomotion relative to the Veh-AMPH group,[5],significantly reduced
same,dose dependence of suppression of AMPH hyperactivity,[5],dose-dependently suppressed the hyperactivity
same,EC50,[7],374 nM
same,"Emax, % 5-HT 5-HT2A",[7],(56%) % 5-HT
Cc1cccc(C2CC2CN)c1 (stereo not shown),pEC50,[9]; reported values,6.23
same,selectivity over 5-HT(2A),[2]; 5-HT2C versus 5-HT2A,120 fold
same,selectivity for 5-HT2C relative to 5-HT2B,[2],14 fold
same,pEC50,"[2]; background, reported values",8.32
same,pEC50,[3],7.19
same,antidepressant-like effects,[10],moderate antidepressant-like effects
c1cc2c3c(c1)[C@H]1CCC[C@H]1N3CCNC2 [WAY-163909],agonist activity at 5-HT2A,[9]; reported,no agonist activity
same,preclinical antipsychotic-like activity,[11],good preclinical antipsychotic-like activity
same,Emax at 5-HT2B,[3],40%
